Inhibition of growth data for 2 compounds are collected here from ChEMBL document CHEMBL3044592, “Synthesis, antiproliferation, and docking studies of N-phenyl-lipoamide and 8-mercapto-N-phenyloctanamide derivatives: effects of C6 position thiol moiety” (2012).

Test systems include Bel-7402; KB; NCI-H460.
Holding throughout (assay): cells
Format in all cases: functional
Holding throughout (conditions): Homo sapiens, read-out: GI

Description for Bel-7402: Growth inhibition of Homo sapiens (human) Bel7402 cells at 100 ug/ml by MTT assay
Description for KB: Growth inhibition of Homo sapiens (human) KB cells at 100 ug/ml by MTT assay
Description for NCI-H460: Growth inhibition of Homo sapiens (human) NCI-H460 cells at 100 ug/ml by MTT assay

`CC(=O)SCCCCCCCC(=O)Nc1ccccc1`: the inhibition of growth at 100 µg/mL with Bel-7402 was 66.3%; in the experiment with KB, 77%; in the experiment with NCI-H460 it was 82.3%.
Regarding `O=C(CCCCCCCS)Nc1ccccc1` [8-MERCAPTO-OCTANOIC ACID PHENYLAMIDE], the results for the inhibition of growth at 100 µg/mL in the experiment with KB and in the experiment with NCI-H460 were 18.6% and 32.4%, respectively.
